Results as given in PubChem BioAssay AID652156 (NMMLSC, 2013).

These molecules were tested on ER-HoxA9 myeloid cells, GFP+/MAC1+ differentiation, flow cytometry (assay: inducers of GFP+/MAC1+ differentiation in arrested progenitors – ER-HoxA9 cells, flow cytometry, Powder Set01, dose response (AID 652156)).

SMILES	EC50
Cc1ccc(Nc2nc(=O)c3cccnc3s2)c(Br)c1	0.93 µM
O=C(CCNC(=O)c1ccc(Cl)cc1)NC1CCCc2ccccc21 (stereo not drawn)	2.09 µM
O=C(O)c1cccnc1Nc1ccc(Cl)cc1	1.33 µM
